Laboratory results: patent US20060069132A1, “Azolecarboxamide herbicides” (priority 2004, published 2006)

Legend:
barnyardgrass [1] = assay: Test A pre-/postemergence herbicide test; assay type: in vivo, Echinochloa crus-galli
Procedure, shortened: (§1)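 Visual injury rating on a 0–100 scale (0 no effect, 100 complete control) versus untreated controls, about ten days after treatment in greenhouse. Pre: directed soil spray onto seeded sandy loam. Post: spray to runoff on plants 2–10 cm tall at one- to two-leaf stage.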

large crabgrass [2] = assay: Test A pre-/postemergence herbicide test; assay type: in vivo, Digitaria sanguinalis
Procedure, shortened: as §1

giant foxtail [3] = assay: Test A pre-/postemergence herbicide test; assay type: in vivo, Setaria faberi
Procedure, shortened: as §1

morningglory [4] = assay: Test A pre-/postemergence herbicide test; assay type: in vivo, Ipomoea spp.
Procedure, shortened: as §1

redroot pigweed = assay: Test A pre-/postemergence herbicide test; assay type: in vivo, Amaranthus retroflexus
Procedure, shortened: as §1

velvetleaf [5] = assay: Test A pre-/postemergence herbicide test; assay type: in vivo, Abutilon theophrasti
Procedure, shortened: as §1

barnyardgrass [6] = assay: Test B pre-/postemergence herbicide test; assay type: in vivo, Echinochloa crus-galli
Procedure, shortened: (§2)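 Plants compared with untreated controls 13–15 days post-treatment and given a visual 0–100 injury score. Applications: preemergence to seeds; postemergence at 1- to 4-leaf (2–18 cm); paddy species flooded, 2-leaf stage. Vehicle non-phytotoxic, surfactant included.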

Surinam grass = assay: Test B pre-/postemergence herbicide test; assay type: in vivo, Urochloa decumbens
Procedure, shortened: as §2

cocklebur = assay: Test B pre-/postemergence herbicide test; assay type: in vivo, Xanthium strumarium
Procedure, shortened: as §2

corn = assay: Test B pre-/postemergence herbicide test; assay type: in vivo, Zea mays
Procedure, shortened: as §2

large crabgrass [7] = assay: Test B pre-/postemergence herbicide test; assay type: in vivo, Digitaria sanguinalis
Procedure, shortened: as §2

giant foxtail [8] = assay: Test B pre-/postemergence herbicide test; assay type: in vivo, Setaria faberi
Procedure, shortened: as §2

lambsquarters = assay: Test B pre-/postemergence herbicide test; assay type: in vivo, Chenopodium album
Procedure, shortened: as §2

morningglory [9] = assay: Test B pre-/postemergence herbicide test; assay type: in vivo, Ipomoea coccinea
Procedure, shortened: as §2

pigweed = assay: Test B pre-/postemergence herbicide test; assay type: in vivo, Amaranthus retroflexus
Procedure, shortened: as §2

rice [10] = assay: Test B pre-/postemergence herbicide test; assay type: in vivo, Oryza sativa; conditions: preemergence
Procedure, shortened: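 Greenhouse pot assay with simultaneous preemergence (treated seed) and postemergence (2–18 cm seedlings) applications of surfactant-containing, non-phytotoxic solvent formulations. Response scored visually 13–15 days later on a 0–100 scale, 100 meaning complete control.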

velvetleaf [11] = assay: Test B pre-/postemergence herbicide test; assay type: in vivo, Abutilon theophrasti
Procedure, shortened: as §2

blackgrass = assay: Test B postemergence herbicide test; assay type: in vivo, Alopecurus myosuroides; conditions: scale 0 (no effect) to 100 (complete control)
Procedure, shortened: (§3)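 Formulated test chemicals went onto postemergence plants measuring 2 to 18 cm, at one to four leaves. For the paddy assay, species had reached two leaves. Scoring took place 13–15 days later by eye, relative to untreated plants, using 0 for no effect up to 100 for full control.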

wheat = assay: Test B postemergence herbicide test; assay type: in vivo, Triticum aestivum; set-up: key to Wheat plant response rating: 0 = no effect, 100 = complete control; conditions: scale 0 (no effect) to 100 (complete control)
Procedure, shortened: as §3

wild oat = assay: Test B postemergence herbicide test; assay type: in vivo, Avena fatua; conditions: scale 0 (no effect) to 100 (complete control)
Procedure, shortened: as §3

rice [12] = assay: Test B flooded paddy test; assay type: in vivo, Oryza sativa; conditions: 1000 g ai/ha, visual rating, scale 0 to 100 (0 no effect, 100 complete control), 13 to 15 days
Procedure, shortened: as §3

[13] = tested on: small flower umbrella sedge; assay: Test B flooded paddy test; assay type: in vivo, Cyperus difformis; conditions: 1000 g ai/ha, visual rating, scale 0 to 100 (0 no effect, 100 complete control), 13 to 15 days
Procedure, shortened: as §3

ducksalad = assay: Test B flooded paddy test; assay type: in vivo, Heteranthera limosa; conditions: 1000 g ai/ha, visual rating, scale 0 to 100 (0 no effect, 100 complete control), 13 to 15 days
Procedure, shortened: as §3

barnyardgrass [14] = assay: Test B flooded paddy test; assay type: in vivo, Echinochloa crus-galli; conditions: 1000 g ai/ha, visual rating, scale 0 to 100 (0 no effect, 100 complete control), 13 to 15 days
Procedure, shortened: as §3

[15] = Postemergence, 500 g ai/ha, 0 to 100 scale, 0 no effect, 100 complete control
[16] = Postemergence, 2000 g ai/ha, 0 to 100 scale, 0 no effect, 100 complete control
[17] = Preemergence, 500 g ai/ha, visual rating, 0 to 100 scale (0 no effect, 100 complete control)
[18] = Preemergence, 2000 g ai/ha, 0 to 100 scale, 0 no effect, 100 complete control
[19] = 500 g ai/ha, visual rating 0-100, 0 no effect, 100 complete control, preemergence
[20] = Postemergence, 500 g ai/ha, visual rating after 13 to 15 days, scale 0 (no effect) to 100 (complete control)
[21] = postemergence, 125 g ai/ha, visual rating, scale 0 (no effect) to 100 (complete control)
[22] = preemergence, 125 g ai/ha, 0 to 100 scale, 0 is no effect, 100 is complete control
[23] = Postemergence, 500 g ai/ha, visual rating after 13 to 15 days
[24] = postemergence, 125 g ai/ha, visual rating

In the case of `C=CCOC(=O)c1cccc(NC(=O)c2cc(C(C)(C)C)nn2CC)c1C` [Compound 94], the “Barnyardgrass plant response rating” value (barnyardgrass [1]; [15]) is reported as 20, the “Plant response rating, Barnyardgrass” value (barnyardgrass [1]; [16]) is reported as 35 and the “Barnyardgrass plant response rating” value (barnyardgrass [1]; [17]) is reported as 20. For the same compound, the “Barnyardgrass plant response rating” value (barnyardgrass [1]; [18]) was 65, the “Crabgrass, Large plant response rating” value (large crabgrass [2]; [15]) was 10 and the “Plant response rating, Crabgrass, Large” value (large crabgrass [2]; [16]) was 30. The “Crabgrass, Large plant response rating” value (large crabgrass [2]; [17]) was 35, the “Crabgrass, Large plant response rating” value (large crabgrass [2]; [18]) was 60 and the “Foxtail, Giant plant response rating” value (giant foxtail [3]; [15]) was 10. For the same compound, the “Plant response rating, Foxtail, Giant” value (giant foxtail [3]; [16]) was 15, the “Foxtail, Giant plant response rating” value (giant foxtail [3]; [17]) was 45 and the “Foxtail, Giant plant response rating” value (giant foxtail [3]; [18]) was 65. The “Morningglory plant response rating” value (morningglory [4]; [15]) was 20, the “Plant response rating, Morningglory” value (morningglory [4]; [16]) was 20 and the “Morningglory plant response rating” value (morningglory [4]; [17]) was 10. For the same compound, the “Morningglory plant response rating” value (morningglory [4]; [18]) was 10, the “Pigweed plant response rating” value (redroot pigweed; [15]) was 25 and the “Plant response rating, Pigweed” value (redroot pigweed; [16]) was 30. The “Pigweed plant response rating” value (redroot pigweed; [17]) was 35, the “Pigweed plant response rating” value (redroot pigweed; [18]) was 85 and the “Velvetleaf plant response rating” value (velvetleaf [5]; [15]) was 20. The “Plant response rating, Velvetleaf” value (velvetleaf [5]; [16]) was 25, the “Velvetleaf plant response rating” value (velvetleaf [5]; [17]) was 5 and the “Velvetleaf plant response rating” value (velvetleaf [5]; Preemergence, 2000 g ai/ha, visual rating, 0 to 100 scale (0 no effect, 100 complete control)) was 25. The “Plant response rating, Barnyardgrass” value (barnyardgrass [6]; [19]) was 20, the “Plant response rating, Barnyardgrass” value (barnyardgrass [6]; [20]) was 10 and the “Barnyardgrass plant response rating” value (barnyardgrass [6]; [21]) was 10. For the same compound, the “Plant response rating, Barnyardgrass” value (barnyardgrass [6]; [22]) was 10, the “Plant response rating, Surinam Grass” value (Surinam grass; [19]) was 0 and the “Plant response rating, Surinam Grass” value (Surinam grass; [20]) was 10. For the same compound, the “Surinam Grass plant response rating” value (Surinam grass; [21]) was 10, the “Plant response rating, Surinam Grass” value (Surinam grass; [22]) was 0 and the “Plant response rating, Cocklebur” value (cocklebur; [19]) was 0. The “Plant response rating, Cocklebur” value (cocklebur; [20]) was 50, the “Cocklebur plant response rating” value (cocklebur; [21]) was 20 and the “Plant response rating, Cocklebur” value (cocklebur; [22]) was 0. The “Plant response rating, Corn” value (corn; [19]) was 0, the “Plant response rating, Corn” value (corn; [20]) was 20 and the “Corn plant response rating” value (corn; [21]) was 20. For the same compound, the “Plant response rating, Corn” value (corn; [22]) was 0, the “Plant response rating, Crabgrass, Large” value (large crabgrass [7]; [19]) was 20 and the “Plant response rating, Crabgrass, Large” value (large crabgrass [7]; [20]) was 10. The “Crabgrass, Large plant response rating” value (large crabgrass [7]; [21]) was 10, the “Plant response rating, Crabgrass, Large” value (large crabgrass [7]; [22]) was 10 and the “Plant response rating, Foxtail, Giant” value (giant foxtail [8]; [19]) was 30. The “Plant response rating, Foxtail, Giant” value (giant foxtail [8]; [20]) was 10, the “Foxtail, Giant plant response rating” value (giant foxtail [8]; [21]) was 10 and the “Plant response rating, Foxtail, Giant” value (giant foxtail [8]; [22]) was 10. For the same compound, the “Plant response rating, Lambsquarters” value (lambsquarters; [19]) was 0, the “Plant response rating, Lambsquarters” value (lambsquarters; [20]) was 80 and the “Lambsquarters plant response rating” value (lambsquarters; [21]) was 50. For the same compound, the “Plant response rating, Lambsquarters” value (lambsquarters; [22]) was 0, the “Plant response rating, Morningglory” value (morningglory [9]; [19]) was 0 and the “Plant response rating, Morningglory” value (morningglory [9]; [20]) was 10. For the same compound, the “Morningglory plant response rating” value (morningglory [9]; [21]) was 10, the “Plant response rating, Morningglory” value (morningglory [9]; [22]) was 0 and the “Plant response rating, Pigweed” value (pigweed; [19]) was 20. The “Plant response rating, Pigweed” value (pigweed; [20]) was 30, the “Pigweed plant response rating” value (pigweed; [21]) was 10 and the “Plant response rating, Pigweed” value (pigweed; [22]) was 0. For the same compound, the “Plant response rating, Rice” value (rice [10]; 500 g ai/ha, visual rating 0-100, 0 no effect, 100 complete control) was 0, the “Plant response rating, Rice” value (rice [10]; 125 g ai/ha, 0 to 100 scale, 0 is no effect, 100 is complete control) was 0 and the “Plant response rating, Velvetleaf” value (velvetleaf [11]; [19]) was 0. For the same compound, the “Plant response rating, Velvetleaf” value (velvetleaf [11]; [20]) was 20, the “Velvetleaf plant response rating” value (velvetleaf [11]; [21]) was 10 and the “Plant response rating, Velvetleaf” value (velvetleaf [11]; [22]) was 0. For the same compound, the “Plant response rating, Blackgrass” value (blackgrass; [23]) was 10, the “Blackgrass plant response rating” value (blackgrass; [24]) was 0 and the “Plant response rating, Wheat” value (wheat; [23]) was 10. For the same compound, the “Wheat plant response rating” value (wheat; [24]) was 0, the “Plant response rating, Oat, Wild” value (wild oat; [23]) was 10 and the “Oat, Wild plant response rating” value (wild oat; [24]) was 10. For the same compound, the “Rice plant response rating” value (rice [12]) was 10, the “Sedge, Umbrella plant response rating” value [13] was 50 and the “Ducksalad plant response rating” value (ducksalad) was 30. For the same compound, the “Barnyardgrass plant response rating” value (barnyardgrass [14]) was 20.
